Laboratory results published in patent publication US20130331378A1, “PYRAZOLOPYRIDINE DERIVATIVE OR PHARMACOLOGICALLY ACCEPTABLE SALT THEREOF” (KISSEI PHARMACEUTICAL CO., LTD., priority 2011, published 2013).

target: T1, rat EP1 receptor (Rattus norvegicus, UniProt P70597); assay: Test for confirming EP1 receptor antagonistic effect: suppression of prostaglandin E2-induced rise in intracellular calcium concentration; assay type: cell-based; conditions: rat EP1 receptor-expressing COS-1 cells; prostaglandin E2 10 nM; Fluo 4-AM fluorescent signal; test compound 0.1 nM to 10 μM
T1 construct: expressed in transfected cells
T1 sequence (P70597 1-405): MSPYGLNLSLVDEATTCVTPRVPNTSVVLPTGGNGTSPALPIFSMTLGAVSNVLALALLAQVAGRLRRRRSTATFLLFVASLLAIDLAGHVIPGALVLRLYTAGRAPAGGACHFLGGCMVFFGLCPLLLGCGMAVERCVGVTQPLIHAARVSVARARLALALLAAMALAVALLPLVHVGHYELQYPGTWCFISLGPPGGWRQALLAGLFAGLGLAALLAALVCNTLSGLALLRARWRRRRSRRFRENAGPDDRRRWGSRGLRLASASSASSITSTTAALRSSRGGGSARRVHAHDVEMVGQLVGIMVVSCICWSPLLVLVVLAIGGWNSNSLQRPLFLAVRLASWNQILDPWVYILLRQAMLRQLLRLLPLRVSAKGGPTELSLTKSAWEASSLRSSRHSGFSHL
Method: (1) Preparation of Rat EP1 Expression Vector
The first PCR was performed with Rat Kidney BD Marathon-Ready cDNA (Nippon Becton Dickinson Co., Ltd.) as a template using a forward primer represented by SEQ ID NO: 1 and a reverse primer represented by SEQ ID NO: 2 and using KOD-Plus-Ver 2.0 (Toyobo Co., Ltd.). The second PCR was further performed in a similar manner with this amplification product as a template using a forward primer represented by SEQ ID NO: 3 and a reverse primer represented by SEQ ID NO: 4. The amplification product obtained by the second PCR was incorporated into a vector (pcDNA3.1 D/V5-His-TOPO (registered trademark), Invitrogen Corporation). This vector with the incorporated amplification product was introduced to E. coli (One Shot TOP10 Competent Cell, Invitrogen Corporation) by a conventional method to perform transformation. This transformed E. coli was cultured for 1 day in an LB agar medium. After the culture, colonies were selected and cultured in an LB liquid medium containing 50 μg/mL of ampicillin. After the culture, the vector was purified using QIAprep Spin Miniprep Kit (Qiagen Corporation). The base sequence (SEQ ID NO: 5) of the inserted site in this vector was compared with the base sequence (Ptger1) of rat EP1 registered under Accession No. NM_013100 in a heretofore known database (NCBI) and consequently was completely identical except for 1 base. Moreover, an amino acid sequence translated from this base sequence was completely identical to the amino acid sequence of the rat EP1 receptor registered under Accession No. NP_037232 in NCBI. Thus, it was confirmed that the cloned gene sequence was the base sequence of the rat EP1 receptor and the obtained amino acid sequence was the rat EP1 receptor. The pcDNA3.1 D/V5-His-TOPO (registered trademark) in which the nucleic acid represented by SEQ ID NO: 5 was inserted was used as a rat EP1 expression vector.
(2) Preparation of Rat EP1 Receptor-Expressing Cell
COS-1 cells (Dainippon Sumitomo Pharma Co., Ltd.) were cultured at 37° C. in an incubator under 5% CO2 gas conditions using a D-MEM liquid medium (containing high glucose and L-glutamine, Invitrogen Corporation) supplemented with a penicillin-streptomycin solution (Invitrogen Corporation, final concentration: 100 U/mL as benzylpenicillin; 100 μg/mL as streptomycin) as antibiotics, MEM non-essential amino acids (Invitrogen Corporation, final concentration: 0.1 mM), and fetal bovine serum (Moregate Biotech, final concentration: 10%), until reaching confluence.
The cells that reached confluence were dissociated with 0.05% trypsin/0.53 mM EDTA.4Na (Invitrogen Corporation) and resuspended in the liquid medium. The resuspended cells were diluted with the liquid medium so that the spread ratio became 1:4 to 1:8, and were cultured.
The cells that reached confluence were dissociated with 0.05% trypsin/0.53 mM EDTA.4Na and resuspended in a D-MEM liquid medium (containing high glucose and L-glutamine, Invitrogen Corporation) supplemented with MEM non-essential amino acids (final concentration: 0.1 mM) and fetal bovine serum (final concentration: 10%). This resuspended cell suspension was prepared with a liquid medium so as to become the number of cells 5×10^4 cells/100 μL of the liquid medium/well in each well of a poly-D-lysine-coated 96-well microplate (BD BioCoat (registered trademark), Nippon Becton Dickinson Co., Ltd.), and this cell preparation was dispensed at 100 μL to each well and seeded. After the seeding, the cells were cultured at 37° C. in an incubator under 5% CO2 gas conditions. The introduction of the rat EP1 expression vector was performed by procedures shown below at the point in time when the cells for introduction of this rat EP1 expression vector adhered (approximately 2 hours after the seeding).
Lipofectamine 2000 (Invitrogen Corporation) was used for the introduction of the rat EP1 expression vector. […]

Row | IC50 [nM] | SMILES
1 | 11 | O=C(O)c1cccc(Cc2c(-c3ccccc3)nn3cc(Br)ccc23)n1 [Example 3-14, 6-[(6-Bromo-2-phenylpyrazolo[1,5-a]pyridin-3-yl)methyl]pyridine-2-carboxylic acid]
2 | 56 | COc1ccc2c(Cc3cccc(-c4nnn[nH]4)n3)c(-c3ccccc3)nn2c1 [Example 2-1, 6-Methoxy-2-phenyl-3-[[6-(1H-tetrazol-5-yl)pyridin-2-yl]methyl]pyrazolo[1,5-a]pyridine]
3 | 48 | CC(C)(C)c1nn2cc(Cl)ccc2c1Cc1cccc(C(=O)O)n1 [Example 12-23, 6-[(2-tert-Butyl-6-chloropyrazolo[1,5-a]pyridin-3-yl)methyl]pyridine-2-carboxylic acid]
4 | 19 | O=C(O)c1cccc(Cc2c(-c3ccccc3)nn3cc(C(F)(F)F)ccc23)n1 [Example 3-22, 6-[[2-Phenyl-6-(trifluoromethyl)pyrazolo[1,5-a]pyridin-3-yl]methyl]pyridine-2-carboxylic acid]
5 | 2.5 | Clc1ccc2c(Cc3cccc(-c4nnn[nH]4)n3)c(-c3ccccc3)nn2c1 [Example 28-1, 6-Chloro-2-phenyl-3-[[6-(1H-tetrazol-5-yl)pyridin-2-yl]methyl]pyrazolo[1,5-a]pyridine]
6 | 60 | COc1ccc2c(Cc3ccc(C(=O)O)o3)c(-c3ccccc3)nn2c1 [Example 3-6, 5-[(6-Methoxy-2-phenylpyrazolo[1,5-a]pyridin-3-yl)methyl]furan-2-carboxylic acid]
7 | 70 | S=c1[nH]c(-c2cccc(Cc3c(-c4ccccc4)nn4cc(Cl)ccc34)n2)no1 [Example 26-1]
8 | 11 | COc1ccc2c(Cc3cccc(C(=O)O)c3)c(-c3ccccc3)nn2c1 [Example 3-4, 3-[(6-Methoxy-2-phenylpyrazolo[1,5-a]pyridin-3-yl)methyl]benzoic acid]
9 | 21 | C=Cc1ccc2c(Cc3cccc(C(=O)O)n3)c(-c3ccccc3)nn2c1 [Example 3-11, 6-[(2-Phenyl-6-vinylpyrazolo[1,5-a]pyridin-3-yl)methyl]pyridine-2-carboxylic acid]
10 | 39 | O=C(O)c1cccc(Cc2c(-c3cccc(F)c3)nn3cc(Cl)ccc23)n1 [Example 12-38, 6-[[6-Chloro-2-(3-fluorophenyl)pyrazolo[1,5-a]pyridin-3-yl]methyl]pyridine-2-carboxylic acid]
11 | 79 | O=C(O)c1cccc(Cc2c(N3CCCCC3)nn3cc(Cl)ccc23)n1 [Example 12-26, 6-[[6-Chloro-2-(piperidin-1-yl)pyrazolo[1,5-a]pyridin-3-yl]methyl]pyridine-2-carboxylic acid]
12 | 87 | CSc1ccc2c(Cc3cccc(C(=O)O)n3)c(-c3ccccc3)nn2c1 [Example 12-17, 6-[[6-(Methylthio)-2-phenylpyrazolo[1,5-a]pyridin-3-yl]methyl]pyridine-2-carboxylic acid]
13 | 16 | COc1ccc2c(Cc3cccc(C(=O)O)n3)c(-c3ccc(F)cc3)nn2c1 [Example 3-24, 6-[[2-(4-Fluorophenyl)-6-methoxypyrazolo[1,5-a]pyridin-3-yl]methyl]pyridine-2-carboxylic acid]
14 | 170 | COc1ccc2c(Cc3cccc(C(=O)O)n3)c(C3CCCC3)nn2c1 [Example 3-18, 6-[(2-Cyclopentyl-6-methoxypyrazolo[1,5-a]pyridin-3-yl)methyl]pyridine-2-carboxylic acid]
15 | 6 | COc1ccc2c(Cc3cccc(C(=O)O)n3)c(-c3ccccc3)nn2c1 [Example 3-5, 6-[(6-Methoxy-2-phenylpyrazolo[1,5-a]pyridin-3-yl)methyl]pyridine-2-carboxylic acid]
16 | 29 | O=C(O)c1cccc(Cc2c(-c3ccccc3)nn3cc(Cl)ccc23)c1 [Example 3-2, 3-[(6-Chloro-2-phenylpyrazolo[1,5-a]pyridin-3-yl)methyl]benzoic acid]
17 | 43 | COc1ccc2c(Cc3cccc(C(=O)O)n3)c(-c3ccsc3)nn2c1 [Example 3-32, 6-[[6-Methoxy-2-(thiophen-3-yl)pyrazolo[1,5-a]pyridin-3-yl]methyl]pyridine-2-carboxylic acid]
18 | 110 | O=C(O)c1csc(Cc2c(-c3ccccc3)nn3cc(Cl)ccc23)n1 [Example 12-7]
19 | 62 | CS(=O)(=O)NC(=O)c1cccc(Cc2c(-c3ccccc3)nn3cc(Cl)ccc23)n1 [Example 23-1, 6-[(6-Chloro-2-phenylpyrazolo[1,5-a]pyridin-3-yl)methyl]-N-(methylsulfonyl)pyridine-2-carboxamide]
20 | 2.9 | COc1ccc2c(Cc3cccc(C(=O)O)n3)c(-c3cccc(F)c3)nn2c1 [Example 12-53, 6-[[2-(3-Fluorophenyl)-6-methoxypyrazolo[1,5-a]pyridin-3-yl]methyl]pyridine-2-carboxylic acid]
21 | 160 | CC1(c2nn3cc(Cl)ccc3c2Cc2cccc(C(=O)O)n2)CC1 [Example 12-36, 6-[[6-Chloro-2-(1-methylcyclopropyl)pyrazolo[1,5-a]pyridin-3-yl]methyl]pyridine-2-carboxylic acid]
22 | 46 | O=c1[nH]c(-c2cccc(Cc3c(-c4ccccc4)nn4cc(Cl)ccc34)n2)no1 [Example 25-1]
23 | 39 | COc1ccc2c(Cc3cccc(C(=O)O)n3)c(C(C)(C)C)nn2c1 [Example 3-15, 6-[(2-tert-Butyl-6-methoxypyrazolo[1,5-a]pyridin-3-yl)methyl]pyridine-2-carboxylic acid]
24 | 19 | Cc1ccc2c(Cc3cccc(C(=O)O)n3)c(-c3ccccc3)nn2c1 [Example 3-21, 6-[(6-Methyl-2-phenylpyrazolo[1,5-a]pyridin-3-yl)methyl]pyridine-2-carboxylic acid]
